In ChEMBL document CHEMBL3045460, “Antifungal, mosquito deterrent, and larvicidal activity of N-(benzylidene)-3-cyclohexylpropionic acid hydrazide derivatives” (2013):
In brackets after ≈: the same amount, converted by molar mass. Activity calls are given as the source filed them. The rule behind the calls is not given here.

Tests used:
Botrytis cinerea = assay: Antifungal activity against Botryotinia fuckeliana assessed as growth inhibition at 0.3 to 30 uM after 48 to 72 hr by 96-well microdilution broth assay; format: functional, organism-based
Fusarium oxysporum = assay: Antifungal activity against Fusarium oxysporum assessed as growth inhibition at 0.3 to 30 uM after 48 to 72 hr by 96-well microdilution broth assay; format: functional, organism-based
Colletotrichum fragariae = assay: Antifungal activity against Colletotrichum fragariae assessed as growth inhibition at 0.3 to 30 uM after 48 to 72 hr by 96-well microdilution broth assay; format: functional, organism-based
[1] = test system: Colletotrichum gloeosporioides; assay: Antifungal activity against Colletotrichum gloeosporioides assessed as growth inhibition at 0.3 to 30 uM after 48 to 72 hr by 96-well microdilution broth assay; format: functional, organism-based
Aedes aegypti [2] = assay: Insecticidal activity against female adult Aedes aegypti fed on CPDA-1+ATP assessed as biting deterrence activity at 25 nmol/cm2 by six-celled K & D module bioassay; format: functional
Colletotrichum acutatum = assay: Antifungal activity against Colletotrichum acutatum assessed as growth inhibition at 0.3 to 30 uM after 48 to 72 hr by 96-well microdilution broth assay; format: functional, organism-based
Phomopsis obscurans = assay: Antifungal activity against Phomopsis obscurans assessed as growth inhibition at 30 uM after 144 hr by 96-well microdilution broth assay; format: functional; details: Paraphomopsis obscurans, read-out: GI
Aedes aegypti [3] = assay: Insecticidal activity against first-instar larval stage of Aedes aegypti assessed as mortality at 0.8 ppm after 48 hr; format: functional
Aedes aegypti [4] = assay: Insecticidal activity against first-instar larval stage of Aedes aegypti assessed as mortality at 1.6 ppm after 24 hr; format: functional, organism-based
Diaporthe ampelina = assay: Antifungal activity against Diaporthe ampelina assessed as growth inhibition at 30 uM after 144 hr by 96-well microdilution broth assay; format: functional; details: read-out: GI
Aedes aegypti [5] = assay: Insecticidal activity against first-instar larval stage of Aedes aegypti assessed as mortality at 25 ppm after 24 hr; format: functional
Aedes aegypti [6] = assay: Insecticidal activity against first-instar larval stage of Aedes aegypti assessed as mortality at 0.8 ppm after 24 hr; format: functional, organism-based
Aedes aegypti [7] = assay: Insecticidal activity against first-instar larval stage of Aedes aegypti assessed as mortality at 1.6 ppm after 48 hr; format: functional
Aedes aegypti [8] = assay: Insecticidal activity against first-instar larval stage of Aedes aegypti assessed as mortality after 48 hr; format: functional
Aedes aegypti [9] = assay: Insecticidal activity against first-instar larval stage of Aedes aegypti assessed as mortality at 100 ppm after 24 hr; format: functional
Aedes aegypti [10] = assay: Insecticidal activity against first-instar larval stage of Aedes aegypti assessed as mortality at 50 ppm after 24 hr; format: functional
Aedes aegypti [11] = assay: Insecticidal activity against first-instar larval stage of Aedes aegypti assessed as mortality after 24 hr; format: functional

SMILES	growth inhibition (GI) (Botrytis cinerea)	growth inhibition (GI) (Fusarium oxysporum)	growth inhibition (GI) (Colletotrichum fragariae)	growth inhibition (GI) [1]	Activity (Aedes aegypti [2])	growth inhibition (GI) (Colletotrichum acutatum)	inhibition of growth at 30 µM (Phomopsis obscurans)	also measured
O=C(CCC1CCCCC1)N/N=C\c1ccccc1	inactive	inactive	inactive	inactive	>50%	inactive	–	–
CC(C)c1ccc(/C=N\NC(=O)CCC2CCCCC2)cc1	inactive	inactive	inactive	inactive	22%	inactive	99.5%	mortality at 0.8 ppm (Aedes aegypti [3]): 4%; Activity (Aedes aegypti [4]): inactive; inhibition of growth at 30 µM (Diaporthe ampelina): 94%; mortality at 25 ppm (Aedes aegypti [5]): 30%; Activity (Aedes aegypti [6]): inactive; mortality at 1.6 ppm (Aedes aegypti [7]): 14.7%; LD90 (Aedes aegypti [8]): 19.1 ppm; LC50 (Aedes aegypti [8]; Aedes aegypti, Instar larval stage, 48 h, read-out: LD50 (the source's name)): 4.35 µg/mL (≈ 14.5 µM); mortality at 100 ppm (Aedes aegypti [9]): 80%; mortality at 50 ppm (Aedes aegypti [10]): 70%; LD90 (Aedes aegypti [11]): 297.8 ppm; LC50 (Aedes aegypti [11]; Aedes aegypti, Instar larval stage, 24 h, read-out: LD50 (the source's name)): 57.4 µg/mL (≈ 191 µM)
O=C(CCC1CCCCC1)N/N=C\c1ccc(O)cc1	inactive	inactive	inactive	inactive	22%	inactive	–	–
CCN(CC)C(=O)c1cccc(C)c1 [DIETHYLTOLUAMIDE]	–	–	–	–	80%	–	–	–
O=C(CCC1CCCCC1)N/N=C\c1ccc(Br)cc1	inactive	inactive	inactive	inactive	>50%	inactive	–	–
O=C(CCC1CCCCC1)N/N=C\c1ccc(F)cc1	inactive	inactive	inactive	inactive	–	inactive	86.9%	inhibition of growth at 30 µM (Diaporthe ampelina): 83.6%
CN(C)c1ccc(/C=N\NC(=O)CCC2CCCCC2)cc1	inactive	inactive	inactive	inactive	22%	inactive	–	–
O=C1C2CC=CCC2C(=O)N1SC(Cl)(Cl)Cl (centres undefined) [CAPTAN]	–	–	–	–	–	–	100%	inhibition of growth at 30 µM (Diaporthe ampelina): 99.2%
COc1ccc(/C=N\NC(=O)CCC2CCCCC2)cc1	inactive	inactive	inactive	inactive	22%	inactive	74.1%	–
O=C(CCC1CCCCC1)N/N=C\c1ccc([N+](=O)[O-])cc1	inactive	inactive	inactive	inactive	22%	inactive	–	–
Cc1ccc(/C=N\NC(=O)CCC2CCCCC2)cc1	inactive	inactive	inactive	inactive	22%	inactive	86.7%	–
O=C(CCC1CCCCC1)N/N=C\c1ccc(Cl)cc1	inactive	inactive	inactive	inactive	>50%	inactive	–	–
